We go through nine molecules from US6011000A, “Compositions for the treatment of blood disorders” (priority 1995, dated 2000).

In data set [1] the test system is γ globin mRNA of bone marrow cells. As to conditions: cited from earlier work.
Data set [2] deals with fetal reticulocyte production. As to conditions: cited from earlier work.
The next data set relates to globin expression. The conditions noted are these: cited from earlier work.
Data set [3] deals with system A transport (K562 cells and nucleated erythroblasts from fetal liver). Nature of the data set: Effects on system A amino acid transport (3H-MAIB uptake). Format: cell-based, human. The procedure: Inhibition of nutrient uptake is undesirable for treatment of anemias. Methyl aminoisobutyric acid (MAIB) labeled with tritium (^3 H) is normally taken up by system A amino acid transport. Cold (unlabeled) compounds were added to cultures containing ^3 H-MAIB and incubated for 1 hour. Cells were harvested and the amount of ^3 H taken up by cells was quantitated by scintillation counting.

The next data set relates to MCF-7 cells. Nature of the data set: Growth/viability of human mammary carcinoma cells. Format: cell-based. The conditions noted are these: MCF7, 96 h, 1.0 mM, 4 days, read-out: growth decrease of MCF-7 cells. The procedure:
Human mammary carcinoma cells (MCF-7) were cultured alone (controls) and with arginine butyrate or isobutyramide for 4 days. Viability was assayed by FACS after incubation with a fluorescent dye taken up by viable cells (FIG. 6). Growth was decreased by 50% with isobutyramide at 1.0 mM, about 60% with arginine butyrate at 0.5 mM, and greater than 90% with arginine butyrate at 1.0 mM.

Data set [4] in a line: Hemoglobin and red blood cell levels in a patient with thalassemia intermedia. Format: in vivo, human. Set-up: Hgb-A1 / Hgb-A2 / HbF: unit not given here. The conditions noted are these: for RBC: 50 mg/kg 3 days/week. The procedure:
This patient received isobutyramide at 50 mg/kg for 3 days/week over the course of the study.

The subject of data set [5] is erythroid cells (peripheral blood). Nature of the data set: Erythroid cell viability by fluorescent staining (Calcein-AM), FIG. 2. It is filed as cell-based, human. As to conditions: 0.5 mM, vs untreated controls. As for the experimental part: FIG. 2 Peripheral blood cell viability after incubation with arginine butyrate, dihydrocinnamic acid, phenoxyacetic acid and butyric acid ethyl ester.
Compositions were tested for the ability to directly stimulate erythroid cell growth. Cell growth stimulation is a useful property for an agent to be used to treat anemias and distinguishes such agents from the cytotoxic drugs currently being tested for treatment of hemoglobinopathies. Cell viability analyses were performed using fluorescent staining to detect living cells. Cells were in log phase of growth in 6-well dishes when used in proliferation assays. For enumeration of living cells, wells were washed once with medium to remove nonadherent or dead cells. Remaining live cells were labeled with 2 μM 2',7'-bis-(carboxyethyl)-5-(and 6)-carboxy-fluorescein acetoxy-methyl ester (Calcein-AM) (Molecular Probes; Eugene, Oreg.) for 20 minutes at 37° C. and washed once. Fluorescence intensity of live cells was read on a CytoFluor 2300 Fluorescence Plate Scanner (Millipore; Bedford, Mass.) at excitation and emission wavelengths of 485 and 530 nm, respectively. The fluorescence intensity of a well was proportional to the number of living cells in the well. Background fluorescence was measured separately for each plate and subtracted from all readings. Each experiment was performed in triplicate or quadruplicate. The standard deviation (SD) of repetitive readings was less than 30% of the mean. Results are depicted in FIG. 2.

The subject of another data set is human erythroid cells. The data set is described as follows: DNA fragmentation by flow cytometry (degradation of DNA). Format: cell-based. As for the experimental part:
Such activities might limit their utility for treatment of anemias such as occur in thalassemia, but alternatively would be useful for anticancer effects. To determine cell viability, human erythroid cells were cultured in the presence and absence of these compounds for 4 days and the amount of DNA fragmentation which occurred was measured.
Flow cytometric determination of DNA profiles and DNA fragmentation were determined. Cytometric analysis was performed with a FACScan (Becton Dickenson Instruments; Columbia, Md.). The data analysis and display were performed using the Cell-Fit software program. Approximately 0.5×10^6 cells were washed twice with PBS and resuspended in 1 ml of 1% sodium citrate, 0.1% Triton X-100 and 50 μg of propidium iodide/ml. Resulting permeabilized cells were kept in the dark at 4° C. overnight before DNA profile or DNA fragmentation analysis (Table 4).
On the technique in general: In flow cytometry, cells or beads pass a laser one at a time.

The test system of another data set is fetal globin production. The conditions noted are these: cited from earlier work.
Data set [6] deals with γ-globin promoter (-61 construct, K562 cells). It is filed as cell-based, human. An excerpt:
Functional assay underscores the important role of FRE-γ1 in γ-globin gene expression in K562 cells. To ascertain whether the FRE elements of the γ-globin promoter that were identified by in vivo footprinting were indeed involved in arginine butyrate inducibility for γ-globin gene expression, a series of 5' deletion constructs of the γ-globin promoter, extending from -256 to -61, were constructed and linked them to the NEO gene. Activity of the NEO gene of these constructs, in response to arginine butyrate treatment, was examined by transfecting these reporters into K562 cells. In K562 cells, a construct driven by 256 bp of promoter was able to direct NEO activity expression, resulting in colony formation. […] Deletion to position -61 reduced promoter activity to 33-40% of the activity seen with the -256 bp construct.

Another data set deals with fetal globin synthesis. The conditions noted are these: cited from earlier work.
In the next data set the test system is Friend leukemia cells. The conditions noted are these: cited from earlier work.
Data set [7] has as its system fetal globin expression in K562 human erythroleukemia cells. The conditions noted are these: cited from earlier work.
Data set [8] deals with fetal globin synthesis in tissue culture cells. The conditions noted are these: cited from earlier work.
The subject of data set [9] is cultured human erythrocytes. The conditions noted are these: cited from earlier work.
Setting [10] is: 50 mg/kg, 3 days/week, four month study.

Regarding `Nc1ncn([C@@H]2O[C@H](CO)[C@@H](O)[C@H]2O)c(=O)n1` [AZA, 5-azacytidine], in data set [1] (continuous intravenous), the “increase in γ globin mRNA of bone marrow cells” value is recorded as “five- to seven-fold increase”. Besides, the “population of stem cells in the bone marrow” value in data set [1] (in vivo) is “significant alterations in the population of stem cells in the bone marrow”.

With `Nc1ccn([C@@H]2O[C@H](CO)[C@@H](O)[C@@H]2O)c(=O)n1` [AraC, cytosine arabinoside], in [2], the fetal reticulocyte production entry is on record as “induces fetal reticulocyte production”.

With `NC(=O)NO` [Hydroxyurea], in the data set on globin expression, the “specificity to fetal globin” value was “did not appear to be very specific to fetal globin”.

With `CC(C)C(N)=O` [IBT, isobutyramide], the “system A (neutral) amino acid transport” value in data set [3] is recorded as “inhibited the neutral amino acid transport mechanism”. Further, the inhibition at 1000 µM with MCF-7 cells was 50%. Besides, in data set [4] (setting [10]), the “rise in hematocrit (Hct)” value turned out to be 5.8%, the “rise in hemoglobin (Hgb)” value was 1.6 g/dL, the “rise in reticulocytes (Retics)” value was “about 50%” and the “rise in total red blood cells (RBC)” value is on record as ~10^6 /μl. The “total red blood cells (RBC) at end” value in data set [4] (50 mg/kg, 3 days/week, four month study, from 6.48) was 7.3 10^6 cells/μl. For the same molecule, the “hemoglobin (Hgb) at end” value in data set [4] (50 mg/kg, 3 days/week, four month study, from 10.1) is 11.7 g/dL. Besides, in [4] (50 mg/kg, 3 days/week, four month study, from 31.0%), the “hematocrit (Hct) at end” value is 36.9%. For the same molecule, in data set [4] (Day 1), the HbF was found to be 4.4, the Hct was determined as 31.1%, the Hgb worked out at 10.1 g/dL and the Hgb-A1 came out at 89.2. Also, in data set [4] (Day 1), the Hgb-A2 was 6.4 and the RBC is 6.48 10^6 cells/μl. In data set [4] (Day 8), this molecule yielded a HbF of 6.4, a Hct of 36.2%, a Hgb of 10.8 g/dL and a Hgb-A1 of 89.2. Also, in data set [4] (Day 8), the Hgb-A2 is on record as 6.2 and the RBC was 6.76 10^6 cells/μl. For the same molecule, in data set [4] (Day 15), the HbF is 4.4, the Hct is given as 37.0%, the Hgb was determined as 11.1 g/dL and the Hgb-A1 amounted to 89.2. In data set [4] (Day 15), the Hgb-A2 was found to be 6.4 and the RBC is on record as 6.89 10^6 cells/μl. In data set [4] (Day 22), this molecule yielded a HbF of 0.4, a Hct of 34.1%, a Hgb of 10.3 g/dL and a Hgb-A1 of 89.1. For the same molecule, in data set [4] (Day 22), the Hgb-A2 turned out to be 6.9 and the RBC was 6.28 10^6 cells/μl. Also, in data set [4] (Day 29), the HbF amounted to 4.4, the Hct is 36.3%, the Hgb is 10.9 g/dL and the Hgb-A1 is reported as 88.6. Moreover, in [4] (Day 29), the Hgb-A2 is given as 7.0 and the RBC was 6.61 10^6 cells/μl. Moreover, in data set [4] (Day 36), the HbF was 0.4, the Hct is given as 33.8%, the Hgb turned out to be 10.4 g/dL and the Hgb-A1 is listed as 88.4. Besides, in [4] (Day 36), the Hgb-A2 turned out to be 7.6 and the RBC is listed as 6.28 10^6 cells/μl. In data set [4] (Day 43), this molecule showed a HbF of 8.4, a Hct of 36.2%, a Hgb of 11.0 g/dL and a Hgb-A1 of 88.7. Also, in data set [4] (Day 43), the Hgb-A2 amounted to 6.5 and the RBC is 6.38 10^6 cells/μl. For the same molecule, in data set [4] (Day 55), the HbF was determined as 5.4, the Hct turned out to be 34.0%, the Hgb is 11.4 g/dL and the RBC is 6.68 10^6 cells/μl. In data set [4] (Day 68), the HbF is recorded as 1.4, the Hct was found to be 36.4%, the Hgb was determined as 11.5 g/dL and the RBC is reported as 6.68 10^6 cells/μl. Besides, in data set [4] (Day 96), the Hct was 36.9%, the Hgb worked out at 11.7 g/dL and the RBC is given as 7.33 10^6 cells/μl. Besides, the “fetal globin (HbF)” value in data set [4] (four month study) is “lack of increased fetal globin (HbF)”. Moreover, in data set [4] (throughout the study), the Hemoglobin-A1 level entry is reported as “approximately constant” and the hemoglobin-A2 level entry is listed as “approximately constant”. The “erythroid cell growth and proliferation” value in data set [5] was “either had no effect or stimulated erythroid cell growth and proliferation”. Besides, the “proportion of degraded DNA” value in the data set with human erythroid cells (1.0 mM to 2.0 mM, untreated 26%) is listed as 44%. Also, the “Degraded DNA” value in the data set on human erythroid cells (2.0 mM, 4 days, control 26%, 22%) is reported as 34%. Further, the “DNA fragmentation / cell viability / DNA integrity” value in the data set on human erythroid cells (DNA fragmentation assays) was “decrease cell viability”. In addition, the “stimulation of fetal globin production” value with fetal globin production is listed as “effective in stimulating fetal globin production”. Moreover, the “induction of construct activity” value in data set [6] was 2.5-4 fold.

As for `CC(=O)O` [acetate], in the data set on fetal globin synthesis, the “duration of positive effects” value was “positive effects could only be maintained for very short periods of time”; the “erythrocyte precursor populations and fetal globin synthesis” value was “increased both erythrocyte precursor populations and also fetal globin synthesis”. Besides, the hemoglobin synthesis entry with Friend leukemia cells was “induced hemoglobin synthesis”.

With `CCC(=O)O` [propionate], in [7], the “increase of fetal globin expression” value is “most effective”. For the same molecule, the hemoglobin synthesis result with Friend leukemia cells is recorded as “induced hemoglobin synthesis”.

Consider “GM-CSF: granulocyte/macrophage-colony stimulating factor (GM-CSF)”, for which, in data set [8], the fetal globin synthesis entry is recorded as “increase fetal globin synthesis in tissue culture cells”.

B1: activin: Activin, sometimes referred to as erythroid differentiating factor (EDF) (protein, UniProt P08476 311-426, looked up)
Inhibin beta A chain: GLECDGKVNICCKKQFFVSFKDIGWNDWIIAPSGYHANYCEGECPSHIAGTSGSSLSFHSTVINHYRMRGHSPFANLKSCCVPTKLRPMSMLYYDDGQNIIKKDIQNMIVEECGCS
modifications: Inhibin beta A chain
As for B1, the hemoglobin accumulation result in data set [9] is recorded as “induced hemoglobin accumulation in cultured human erythrocytes”.

B2: inhibin: Inhibin, a disulfide linked hormone of two subunits (protein, UniProt P05111 233-366; P08476 311-426, looked up)
Inhibin alpha chain: STPLMSWPWSPSALRLLQRPPEEPAAHANCHRVALNISFQELGWERWIVYPPSFIFHYCHGGCGLHIPPNLSLPVPGAPPTPAQPYSLLPGAQPCCAALPGTMRPLHVRTTSDGGYSFKYETVPNLLTQHCACI
Inhibin beta A chain: B1 Inhibin beta A chain
Regarding B2, in [9], the hemoglobin accumulation entry was “induced hemoglobin accumulation in cultured human erythrocytes”.
